Experiments:
Carboplatin = compound: C1CC(C1)(C(=O)[O-])C(=O)[O-].N.N.[Pt+2] [Carboplatin]; settings: max 10 µM
Outline: (§1)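 Cancer cell lines were plated in 1536-well plates in 7.5 μl of DMEM/F12 or RPMI with 10% FBS and kept 24 hours at 37°C and 5% CO2 before 72 hours of dosing, with final DMSO typically 0.2%. CellTiter-Glo 2.0 luminescence measured viability, scaled between blank-well and DMSO-well means. Dose responses were fitted to a two-parameter logistic curve with a non-linear mixed effects model. This fit gives the single-agent IC50.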

AZD5363 = compound: C1CN(CCC1(C(=O)N[C@@H](CCO)C2=CC=C(C=C2)Cl)N)C3=NC=NC4=C3C=CN4 [AZD5363]; settings: max 10 µM
Outline: as §1

AZD1775 = compound: C=CCn1c(=O)c2cnc(Nc3ccc(N4CCN(C)CC4)cc3)nc2n1-c1cccc(C(C)(C)O)n1 [AZD1775]; settings: max 3 µM
Outline: as §1

Trametinib = compound: CC(=O)Nc1cccc(-n2c(=O)n(C3CC3)c(=O)c3c(Nc4ccc(I)cc4F)n(C)c(=O)c(C)c32)c1 [Trametinib]; settings: max 1 µM
Outline: as §1

Paclitaxel = compound: CC(=O)O[C@H]1C(=O)[C@@]2(C)[C@H]([C@H](OC(=O)c3ccccc3)[C@]3(O)C[C@H](OC(=O)[C@H](O)[C@@H](NC(=O)c4ccccc4)c4ccccc4)C(C)=C1C3(C)C)[C@]1(OC(C)=O)CO[C@@H]1C[C@@H]2O [Paclitaxel]; settings: max 3 µM
Outline: as §1

Palbociclib = compound: CC(=O)c1c(C)c2cnc(Nc3ccc(N4CCNCC4)cn3)nc2n(C2CCCC2)c1=O [Palbociclib]; settings: max 10 µM
Outline: as §1

AZD1390 = compound: CC(C)n1c(=O)n(C)c2cnc3cc(F)c(-c4ccc(OCCCN5CCCCC5)nc4)cc3c21 [AZD1390]; settings: max 0.3 µM
Outline: as §1

Venetoclax = compound: CC1(C)CCC(CN2CCN(c3ccc(C(=O)NS(=O)(=O)c4ccc(NCC5CCOCC5)c([N+](=O)[O-])c4)c(Oc4cnc5[nH]ccc5c4)c3)CC2)=C(c2ccc(Cl)cc2)C1 [Venetoclax]; settings: max 1 µM
Outline: as §1

Dasatinib = compound: CC1=C(C(=CC=C1)Cl)NC(=O)C2=CN=C(S2)NC3=CC(=NC(=N3)C)N4CCN(CC4)CCO [Dasatinib]; settings: max 2 µM
Outline: as §1

SG3199 = compound: CC1=CN2[C@@H](C1)C=NC3=CC(=C(C=C3C2=O)OC)OCCCCCOC4=C(C=C5C(=C4)N=C[C@@H]6CC(=CN6C5=O)C)OC [SG3199]; settings: max 0.001 µM
Outline: as §1

AZD2811 = compound: CCN(CCO)CCCOc1ccc2c(Nc3cc(CC(=O)Nc4cccc(F)c4)[nH]n3)ncnc2c1 [AZD2811]; settings: max 1 µM
Outline: as §1

SN-38 = compound: CCc1c2c(nc3ccc(O)cc13)-c1cc3c(c(=O)n1C2)COC(=O)[C@]3(O)CC [SN-38]; settings: max 0.3 µM
Outline: as §1

AZD0156 = compound: CN(C)CCCOc1ccc(-c2ccc3ncc4c(c3c2)n(C2CCOCC2)c(=O)n4C)cn1 [AZD0156]; settings: max 3 µM
Outline: as §1

AZD4320 = compound: CN(CC[C@H](CSC1=CC=CC=C1)NC2=C(C=C(C=C2)S(=O)(=O)NC(=O)C3=CC=C(C=C3)N4CCC(CC4)[C@H](C5=CC=CC=C5C6=CC=C(C=C6)Cl)O)S(=O)(=O)C(F)(F)F)CCO [AZD4320]; settings: max 1 µM
Outline: as §1

Alisertib = compound: COc1cc(Nc2ncc3c(n2)-c2ccc(Cl)cc2C(c2c(F)cccc2OC)=NC3)ccc1C(=O)O [Alisertib]; settings: max 10 µM
Outline: as §1

Etoposide = compound: COc1cc([C@@H]2c3cc4c(cc3[C@@H](O[C@@H]3O[C@@H]5CO[C@@H](C)O[C@H]5[C@H](O)[C@H]3O)[C@H]3COC(=O)[C@H]23)OCO4)cc(OC)c1O [Etoposide]; settings: max 10 µM
Outline: as §1

Gefitinib = compound: COc1cc2ncnc(Nc3ccc(F)c(Cl)c3)c2cc1OCCCN1CCOCC1 [Gefitinib]; settings: max 10 µM
Outline: as §1

Prexasertib = compound: COc1cccc(OCCCN)c1-c1cc(Nc2cnc(C#N)cn2)n[nH]1 [Prexasertib]; settings: max 1 µM
Outline: as §1

Doxorubicin = compound: COc1cccc2c1C(=O)c1c(O)c3c(c(O)c1C2=O)C[C@@](O)(C(=O)CO)C[C@@H]3O[C@H]1C[C@H](N)[C@H](O)[C@H](C)O1 [Doxorubicin]; settings: max 1 µM
Outline: as §1

AZD5153 = compound: COc1nnc2ccc(N3CCC(c4ccc(OCCN5CCN(C)C(=O)[C@H]5C)cc4)CC3)nn12 [AZD5153]; settings: max 1 µM
Outline: as §1

Lapatinib = compound: CS(=O)(=O)CCNCc1ccc(-c2ccc3ncnc(Nc4ccc(OCc5cccc(F)c5)c(Cl)c4)c3c2)o1 [Lapatinib]; settings: max 10 µM
Outline: as §1

AZD8186 = compound: C[C@@H](Nc1cc(F)cc(F)c1)c1cc(C(=O)N(C)C)cc2c(=O)cc(N3CCOCC3)oc12 [AZD8186]; settings: max 10 µM
Outline: as §1

Crizotinib = compound: C[C@@H](Oc1cc(-c2cnn(C3CCNCC3)c2)cnc1N)c1c(Cl)ccc(F)c1Cl [Crizotinib]; settings: max 10 µM
Outline: as §1

Savolitinib = compound: C[C@@H](c1ccc2nccn2c1)n1nnc2ncc(-c3cnn(C)c3)nc21 [Savolitinib]; settings: max 1 µM
Outline: as §1

AZD6738 = compound: C[C@@H]1COCCN1C2=NC(=NC(=C2)C3(CC3)[S@](=N)(=O)C)C4=C5C=CNC5=NC=C4 [AZD6738]; settings: max 10 µM
Outline: as §1

AZD5991 = compound: Cc1c2c(nn1C)CSCc1cc(n(C)n1)CSc1cc(c3ccccc3c1)OCCCc1c(C(=O)O)n(C)c3c-2c(Cl)ccc13 [AZD5991]; settings: max 1 µM
Outline: as §1

AZD7648 = compound: Cc1cc2ncnn2cc1Nc1ncc2c(n1)n(C1CCOCC1)c(=O)n2C [AZD7648]; settings: max 10 µM
Outline: as §1

Taselisib = compound: Cc1nc(-c2cn3c(n2)-c2ccc(-c4cnn(C(C)(C)C(N)=O)c4)cc2OCC3)n(C(C)C)n1 [Taselisib]; settings: max 10 µM
Outline: as §1

Selumetinib = compound: Cn1cnc2c(F)c(Nc3ccc(Br)cc3Cl)c(C(=O)NOCCO)cc21 [Selumetinib]; settings: max 10 µM
Outline: as §1

SRA737 = compound: N#Cc1cnc(Nc2cc(NC[C@H]3CNCCO3)c(C(F)(F)F)cn2)cn1 [SRA737]; settings: max 10 µM
Outline: as §1

MK-2206 = compound: NC1(c2ccc(-c3nc4ccn5c(=O)[nH]nc5c4cc3-c3ccccc3)cc2)CCC1 [MK-2206]; settings: max 10 µM
Outline: as §1

Gemcitabine = compound: Nc1ccn([C@@H]2O[C@H](CO)[C@@H](O)C2(F)F)c(=O)n1 [Gemcitabine]; settings: max 0.3 µM
Outline: as §1

[1] = compound: O=C(Nc1ccc2[nH]nc(-c3ccncc3)c2c1)[C@@H]1CCN(CC(=O)N2CCN(c3ccc(-c4ncccn4)cc3)CC2)C1; settings: max 5 µM
Outline: as §1

Olaparib = compound: O=C(c1cc(Cc2n[nH]c(=O)c3ccccc23)ccc1F)N1CCN(C(=O)C2CC2)CC1 [Olaparib]; settings: max 10 µM
Outline: as §1

5-Fluorouracil = compound: O=c1[nH]cc(F)c(=O)[nH]1 [5-Fluorouracil]; settings: max 20 µM
Outline: as §1

## TK10 (Kidney Carcinoma)
Carboplatin
  IC50, cell viability 72 h: > 10000 nM
AZD5363
  IC50, cell viability 72 h: > 10000 nM
AZD1775
  IC50, cell viability 72 h: 2870 nM
Trametinib
  IC50, cell viability 72 h: > 1000 nM
Paclitaxel
  IC50, cell viability 72 h: 715 nM
Palbociclib
  IC50, cell viability 72 h: > 10000 nM
AZD1390
  IC50, cell viability 72 h: > 300 nM
Venetoclax
  IC50, cell viability 72 h: > 1000 nM
Dasatinib
  IC50, cell viability 72 h: 437 nM
SG3199
  IC50, cell viability 72 h: > 1 nM
AZD2811
  IC50, cell viability 72 h: > 1000 nM
SN-38
  IC50, cell viability 72 h: > 300 nM
AZD0156
  IC50, cell viability 72 h: > 3000 nM
AZD4320
  IC50, cell viability 72 h: > 1000 nM
Alisertib
  IC50, cell viability 72 h: > 10000 nM
Etoposide
  IC50, cell viability 72 h: > 10000 nM
Gefitinib
  IC50, cell viability 72 h: 9990 nM
Prexasertib
  IC50, cell viability 72 h: 159 nM
Doxorubicin
  IC50, cell viability 72 h: > 1000 nM
AZD5153
  IC50, cell viability 72 h: 903 nM
Lapatinib
  IC50, cell viability 72 h: 8300 nM
AZD8186
  IC50, cell viability 72 h: > 10000 nM
Crizotinib
  IC50, cell viability 72 h: > 10000 nM
Savolitinib
  IC50, cell viability 72 h: > 1000 nM
AZD6738
  IC50, cell viability 72 h: > 10000 nM
AZD5991
  IC50, cell viability 72 h: > 1000 nM
AZD7648
  IC50, cell viability 72 h: > 10000 nM
Taselisib
  IC50, cell viability 72 h: 5340 nM
Selumetinib
  IC50, cell viability 72 h: > 10000 nM
SRA737
  IC50, cell viability 72 h: > 10000 nM
MK-2206
  IC50, cell viability 72 h: > 10000 nM
Gemcitabine
  IC50, cell viability 72 h: > 300 nM
[1]
  IC50, cell viability 72 h: > 5000 nM
Olaparib
  IC50, cell viability 72 h: > 10000 nM
5-Fluorouracil
  IC50, cell viability 72 h: > 20000 nM
